This note sets out measurements from ChEMBL document CHEMBL3792354, “Design, synthesis and evaluation of novel ferulic acid-memoquin hybrids as potential multifunctional agents for the treatment of Alzheimer's disease” (Bioorg Med Chem Lett, 2016).

The structures appear in SMILES notation. pIC50: −log10 of the molar value.

In series [1] the target is Amyloid-beta precursor protein (Homo sapiens) (UniProt P05067). The series can be described thus: Inhibition of self-induced amyloid beta (1 to 42) aggregation (unknown origin) at 25 uM by Thioflavin T-based fluorometric assay.
The nature of series [2]: Antioxidant activity assessed as AAPH radical scavenging activity by measuring Trolox equivalent per microM of test compound measured every minute for 90 mins by ORAC-FL assay. The note with it: 1.5 h. Type of series: physicochemical.
The target in series [3] is Cholinesterase (Equus caballus) (UniProt P81908). The series can be described thus: Inhibition of equine serum BuChE at 50 uM pre-incubated for 15 mins before butylthiocholine chloride substrate addition by Ellman assay. A general note: Ellman's reagent forms a yellow product with free thiols.
Series [4] concerns the target Acetylcholinesterase (Electrophorus electricus, UniProt O42275). Briefly: Inhibition of Electrophorus electricus AChE pre-incubated for 15 mins before acetylthiocholine chloride substrate addition by Ellman assay.
Series [5] in a line: in vitro. The following applies: PAMPA.
Description: Permeability of the compound at 100 ug/ml by PAMPA-BBB assay
Series [6] has as its target Amyloid-beta precursor protein (Homo sapiens) (UniProt P05067). The series can be described thus: Induction of disaggregation of self-induced amyloid beta (1 to 42) fibril formation (unknown origin) at 25 uM incubated for 24 hrs by Thioflavin T-based fluorometric assay.
Series [7] relates to SH-SY5Y. The series can be described thus: Neuroprotective activity against hydrogen peroxide-induced cell injury in human SH-SY5Y cells assessed as cell viability at 10 uM incubated for 3 hrs after H2O2 exposure for 24 hrs by MTT assay. The format is functional. The note with it: read-out: Activity.
Series [8] has as its target Amyloid-beta precursor protein (Homo sapiens) (UniProt P05067). Briefly: Inhibition of self-induced amyloid beta (1 to 42) aggregation (unknown origin) by Thioflavin T-based fluorometric assay.
Series [9] relates to SH-SY5Y. Briefly: Neuroprotective activity against hydrogen peroxide-induced cell injury in human SH-SY5Y cells assessed as cell viability incubated for 3 hrs after H2O2 exposure for 24 hrs by MTT assay. Type of series: functional, cell-based.
In series [10] the target is Amyloid-beta precursor protein (Homo sapiens) (UniProt P05067). The series can be described thus: Inhibition of self-induced amyloid beta (1 to 42) aggregation (unknown origin) at 50 uM by Thioflavin T-based fluorometric assay.
Series [11] shares this target. Briefly: Inhibition of self-induced amyloid beta (1 to 42) aggregation (unknown origin) at 10 uM by Thioflavin T-based fluorometric assay.
Series [12] can be described thus: Toxicity in human SH-SY5Y cells assessed as cell viability at 10 uM incubated for 24 hrs by MTT assay. Type of series: cell-based. The following applies: read-out: Activity. In general terms: Formazan colour is commonly taken as a measure of viable cells.
For series [13], the system named is SH-SY5Y. Briefly: Neuroprotective activity against hydrogen peroxide-induced cell injury in human SH-SY5Y cells assessed as cell viability at 1 uM incubated for 3 hrs after H2O2 exposure for 24 hrs by MTT assay. The note with it: read-out: Activity. The format is functional.

Acetylcholinesterase, sequence (O42275 whole entry): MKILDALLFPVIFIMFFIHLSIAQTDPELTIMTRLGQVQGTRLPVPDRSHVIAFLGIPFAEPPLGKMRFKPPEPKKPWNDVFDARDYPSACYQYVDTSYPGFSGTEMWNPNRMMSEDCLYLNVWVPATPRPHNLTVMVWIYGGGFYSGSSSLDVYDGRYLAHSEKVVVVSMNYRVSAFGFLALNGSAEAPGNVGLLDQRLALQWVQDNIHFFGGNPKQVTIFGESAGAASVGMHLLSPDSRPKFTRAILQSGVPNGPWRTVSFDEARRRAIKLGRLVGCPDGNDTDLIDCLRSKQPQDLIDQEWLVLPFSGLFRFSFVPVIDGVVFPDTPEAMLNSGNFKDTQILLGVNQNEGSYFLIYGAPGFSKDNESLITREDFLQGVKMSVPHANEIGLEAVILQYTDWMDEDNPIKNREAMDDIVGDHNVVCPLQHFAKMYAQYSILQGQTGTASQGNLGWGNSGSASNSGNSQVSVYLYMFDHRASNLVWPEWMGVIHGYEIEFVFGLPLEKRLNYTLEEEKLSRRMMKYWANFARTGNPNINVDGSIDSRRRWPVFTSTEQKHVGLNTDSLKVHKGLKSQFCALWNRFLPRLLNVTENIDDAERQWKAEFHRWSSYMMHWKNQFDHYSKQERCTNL
Amyloid-beta precursor protein (Homo sapiens), sequence (P05067 whole entry): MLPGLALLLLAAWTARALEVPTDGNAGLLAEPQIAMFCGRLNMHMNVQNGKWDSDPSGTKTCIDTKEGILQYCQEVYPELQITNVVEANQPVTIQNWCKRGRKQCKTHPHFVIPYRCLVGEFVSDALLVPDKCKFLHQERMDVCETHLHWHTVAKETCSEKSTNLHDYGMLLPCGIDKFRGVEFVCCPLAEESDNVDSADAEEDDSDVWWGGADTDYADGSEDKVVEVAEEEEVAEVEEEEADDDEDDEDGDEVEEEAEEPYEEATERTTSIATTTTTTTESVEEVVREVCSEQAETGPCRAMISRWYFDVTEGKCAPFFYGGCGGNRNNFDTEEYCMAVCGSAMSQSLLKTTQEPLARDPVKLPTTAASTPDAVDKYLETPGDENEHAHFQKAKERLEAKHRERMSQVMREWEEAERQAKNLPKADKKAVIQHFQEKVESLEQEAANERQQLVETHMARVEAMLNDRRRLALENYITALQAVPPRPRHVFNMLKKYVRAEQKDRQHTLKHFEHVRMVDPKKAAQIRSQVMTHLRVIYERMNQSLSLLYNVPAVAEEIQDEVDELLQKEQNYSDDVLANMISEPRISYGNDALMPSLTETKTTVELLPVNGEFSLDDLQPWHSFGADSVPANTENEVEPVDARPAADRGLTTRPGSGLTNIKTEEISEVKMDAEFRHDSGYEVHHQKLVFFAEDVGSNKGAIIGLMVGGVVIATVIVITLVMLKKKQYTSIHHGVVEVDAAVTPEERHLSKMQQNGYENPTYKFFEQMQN
Cholinesterase (Equus caballus), sequence (P81908 whole entry): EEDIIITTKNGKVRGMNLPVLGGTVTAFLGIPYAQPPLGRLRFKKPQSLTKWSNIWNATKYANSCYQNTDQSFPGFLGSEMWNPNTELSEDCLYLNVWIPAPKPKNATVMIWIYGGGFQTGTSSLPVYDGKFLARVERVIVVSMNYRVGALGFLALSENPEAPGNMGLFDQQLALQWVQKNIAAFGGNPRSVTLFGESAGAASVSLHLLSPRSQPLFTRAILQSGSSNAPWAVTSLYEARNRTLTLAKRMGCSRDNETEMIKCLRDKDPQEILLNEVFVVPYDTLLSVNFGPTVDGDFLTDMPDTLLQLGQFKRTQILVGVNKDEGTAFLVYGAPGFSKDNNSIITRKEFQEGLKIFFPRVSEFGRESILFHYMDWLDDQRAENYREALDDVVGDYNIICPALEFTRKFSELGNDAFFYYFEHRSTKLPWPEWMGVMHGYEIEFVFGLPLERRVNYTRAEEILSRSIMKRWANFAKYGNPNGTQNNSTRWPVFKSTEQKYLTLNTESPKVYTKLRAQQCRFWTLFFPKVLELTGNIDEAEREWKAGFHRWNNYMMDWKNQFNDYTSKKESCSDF

Take `COc1cc(/C=C/C(=O)NCCCN(C)Cc2ccccc2)ccc1O`: the values for the inhibition in series [1] and in series [3] were 39.1% and below 5%, respectively. Further, the Activity in series [2] stood at 1.2 equiv. The negative logarithm of the IC50 (pIC50) in series [4] was 4.46.

Turning to `CCN(CCCCCCNC1=CC(=O)C(NCCCCCCN(CC)Cc2ccccc2OC)=CC1=O)Cc1ccccc1OC` [MEMOQUIN], the inhibition in [1] turned out to be 72.7%; in [3], 5.8%. Further, the pIC50 in series [4] is 8.17.

As to `COc1cc(/C=C/C(=O)NCCCCN(C)Cc2ccccc2)ccc1O`, the inhibition is 31.6% in [1] and below 5% in series [3]. Besides, the Activity in series [2] was 1.3 equiv. Moreover, the pIC50 in series [4] was 4.53.

The compound `CC(=O)[C@H]1CC[C@H]2[C@@H]3CCC4=CC(=O)CC[C@]4(C)[C@H]3CC[C@]12C` [PROGESTERONE] returned a Papp at 100 ug/ml in series [5] of 15.9 ×10⁻⁶ cm/s.

Regarding `CCN(CCCNC(=O)/C=C/c1ccc(O)c(OC)c1)Cc1ccccc1`, the inhibition is 33.3% in series [1] and below 5% in [3]. Also, in series [2], the Activity is reported as 0.9 equiv. This compound showed a pIC50 in [4] of 4.50.

Consider `COc1cc(/C=C/C(=O)NCCCCCCN(C)Cc2ccccc2)ccc1O`, for which the inhibition in series [1] is 31.2%; in series [3] it was below 5%. For the same compound, the Activity in [2] came out at 1.2 equiv. The compound also had a negative-log IC50 (pIC50) in series [4] of 4.82.

For the compound `CN1C(C(=O)Nc2ccccn2)=C(O)c2ccccc2S1(=O)=O` [PIROXICAM], the Papp at 100 ug/ml in series [5] turned out to be 0.63 ×10⁻⁶ cm/s.

Consider `CCn1cc(C(=O)O)c(=O)c2cc(F)c(N3CCNC(C)C3)c(F)c21` (stereo not drawn) [LOMEFLOXACIN], for which the Papp at 100 ug/ml in series [5] was found to be 0.52 ×10⁻⁶ cm/s.

`COc1cc(/C=C/C(=O)NCCCN(C)Cc2ccccc2OC)ccc1O`: the inhibition was 30.8% in series [1] and 15.8% in series [3]. For the same compound, in [2], the Activity worked out at 1.3 equiv. Also, the negative-log IC50 (pIC50) in series [4] is 4.60.

Take `CCN(CCCCNC(=O)/C=C/c1ccc(O)c(OC)c1)Cc1ccccc1`: the inhibition was 33.8% in [1] and below 5% in series [3]. Moreover, in series [2], the Activity was determined as 1.1 equiv. This compound also had a pIC50 in [4] of 4.78.

`COc1cc(/C=C/C(=O)NCCCCN(C)Cc2ccccc2OC)ccc1O`: the inhibition was determined as 32.5% in series [1] and 34.6% in series [3]. Moreover, the Activity in series [2] came to 1.2 equiv. In addition, in series [4], the negative-log IC50 (pIC50) was 4.74.

For the compound `CCN(CCCCCCNC(=O)/C=C/c1ccc(O)c(OC)c1)Cc1ccccc1`, the inhibition in [1] was 37.4%; in [3], 17.2%. Besides, the Activity in series [2] turned out to be 1.1 equiv. The compound also gave a pIC50 in [4] of 5.09.

As for `COc1cc(/C=C/C(=O)CC(=O)/C=C/c2ccc(O)c(OC)c2)ccc1O`, the Activity in series [6] came to 57.6%.

In the case of `CCN(CCCCNC(=O)/C=C/c1ccc(O)c(OC)c1)Cc1ccccc1OC`, the inhibition in series [1] is 38.3%; in series [3], below 5%. Further, in [2], the Activity is recorded as 1.3 equiv. In [4], this compound gave a pIC50 of 5.07.

With `CCN(CCCNC(=O)/C=C/c1ccc(O)c(OC)c1)Cc1ccccc1OC`, the inhibition in [1] came to 35.2%; in series [3], 31.4%. Further, the Activity in series [2] was 1.1 equiv. In addition, the negative logarithm of the IC50 (pIC50) in [4] was 4.80.

`CCN(CCCCCCNC(=O)/C=C/c1ccc(O)c(OC)c1)Cc1ccccc1OC`: the viability at 10 µM in series [7] came out at 88.3%. The inhibition in [1] is 38.1%; in series [8], “Dose-dependent effect”; in [3], 36.2%; in [10] it was 49.3%; in series [11], 26.8%. For the same compound, the figures for the Activity in series [2], in series [9] and in [6] were 1.2 equiv, “Dose-dependent effect” and 45.5%, respectively. In addition, the Papp at 100 ug/ml in series [5] turned out to be 5.53 ×10⁻⁶ cm/s. The same compound had a negative-log IC50 (pIC50) in series [4] of 5.49. Also, the viability at 24 h, 10 µM in series [12] came out at 98.3%. Besides, the viability at 1 µM in [13] was 68.6%.

As for `COc1cc(/C=C/C(=O)O)ccc1O` [FERULATE], the figures for the inhibition in series [1] and in series [3] were 28.3% and below 5%, respectively. Also, the Activity in [2] amounted to 1.1 equiv. Also, the negative logarithm of the IC50 (pIC50) in series [4] was below 4.00.

For `COc1cc(/C=C/C(=O)NCCCCCCN(C)Cc2ccccc2OC)ccc1O`, the inhibition in series [1] came to 36.6%; in series [3], 27.6%. The Activity in series [2] was determined as 1.3 equiv. The compound also showed a negative logarithm of the IC50 (pIC50) in series [4] of 5.07.

The inhibition is the change of the read-out against control, counted positive when it falls. As a reminder, the pIC50 is the negative decadic logarithm of the IC50, by convention in mol/L. The Papp is the rate of passage across a membrane or cell layer, normalised by area and donor concentration. A higher Papp goes with ready permeation.
